According to ChEMBL document CHEMBL2331301, “Structural analysis of the active sites of dihydrofolate reductase from two species of Candida uncovers ligand-induced conformational changes shared among species” (Bioorg Med Chem Lett, 2013):
Converted amounts (≈) assume the structure as drawn. The source made the active and inactive calls. The rule behind the calls is not given here.

Experiments:
Dihydrofolate reductase [1] = molecular target: T1, Dihydrofolate reductase (Homo sapiens, UniProt P00374); experiment: Inhibition of human DHFR
T1 sequence (P00374 whole entry): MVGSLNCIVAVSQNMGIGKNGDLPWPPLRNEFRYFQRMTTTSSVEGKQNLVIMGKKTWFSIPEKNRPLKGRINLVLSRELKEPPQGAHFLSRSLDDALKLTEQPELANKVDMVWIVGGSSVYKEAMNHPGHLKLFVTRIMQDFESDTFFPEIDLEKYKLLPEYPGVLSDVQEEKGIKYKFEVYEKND

[2] = Selectivity ratio of IC50 for human DHFR to Candida glabrata DHFR
[3] = Inhibition of Candida glabrata DHFR; parameters: species or system Nakaseomyces glabratus
Dihydrofolate reductase [4] = molecular target: T2, Dihydrofolate reductase (Candida albicans, UniProt P22906); experiment: Inhibition of Candida albicans DHFR
T2 sequence (P22906 whole entry): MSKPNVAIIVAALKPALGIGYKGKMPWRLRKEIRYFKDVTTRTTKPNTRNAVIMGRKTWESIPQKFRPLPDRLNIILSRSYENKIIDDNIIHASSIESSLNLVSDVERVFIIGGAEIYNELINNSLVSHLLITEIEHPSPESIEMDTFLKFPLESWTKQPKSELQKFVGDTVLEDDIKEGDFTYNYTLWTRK

[5] = Selectivity ratio of IC50 for human DHFR to Candida albicans DHFR
[6] = molecular target: T3, Dihydrofolate reductase (Candida albicans) (UniProt P22906); experiment: Binding affinity to Candida albicans DHFR at 1 mM incubated for 2 hrs by crystallographic analysis in presence of 1 mM NADPH
T3 sequence (whole entry): T2 sequence (P22906 whole entry)

Nakaseomyces glabratus [7] = experiment: Binding affinity to Candida glabrata DHFR at 1 mM incubated for 2 hrs by crystallographic analysis in presence of 1 mM NADPH
Nakaseomyces glabratus [8] = experiment: Antifungal activity against Candida glabrata; type: functional
Candida albicans = experiment: Antifungal activity against Candida albicans; type: functional

IC50 (Dihydrofolate reductase [1]) | Ratio IC50 [2] | IC50 [3] | IC50 (Dihydrofolate reductase [4]) | Ratio IC50 [5] | Activity [6] | Activity (Nakaseomyces glabratus [7]) | MIC (Nakaseomyces glabratus [8]) | MIC (Candida albicans) | SMILES
45 nM | 4.1 | 11 nM | 17 nM | 2.6 |  |  |  |  | CCc1nc(N)nc(N)c1C#CC(C)c1cc(OC)cc(-c2cccc3cnccc23)c1 (configuration not stated)
 | 15 | 97 nM | 61 nM | 25 |  |  |  |  | COc1cc(-c2ccncc2)cc(C(C)C#Cc2c(C)nc(N)nc2N)c1 (configuration not stated)
140 nM | 7.4 | 19 nM | 78 nM | 1.8 | Active | Active |  |  | CCc1nc(N)nc(N)c1C#CCc1cc(OC)cc(-c2ccc3c(c2)OCCO3)c1
 |  | 0.6 nM |  |  | Active | Active | 1.5 µg/mL (≈ 4.03 µM) | 1.5 µg/mL (≈ 4.03 µM) | COc1cc(-c2ccc(C)cc2)cc(C(C)C#Cc2c(C)nc(N)nc2N)c1 (configuration not stated)
 | 20 | 20 nM | 21 nM | 19 |  |  |  |  | COc1cc(C(C)C#Cc2c(C)nc(N)nc2N)cc(N2CCOCC2)c1 (configuration not stated)
 | 26 | 11 nM | 33 nM | 9 |  |  |  |  | COc1cc(C(C)(C)C#Cc2c(C)nc(N)nc2N)cc(OC)c1OC
60 nM | 3.8 | 16 nM | 71 nM | 0.84 |  |  |  |  | CCc1nc(N)nc(N)c1C#CCc1cc(OC)cc(-c2cccc3cnccc23)c1
 |  | 8.2 nM |  |  |  |  |  |  | CCc1nc(N)nc(N)c1C#CCc1cc(OC)ccc1OC
260 nM | 14 | 18 nM | 23 nM | 11 |  |  |  |  | CCc1nc(N)nc(N)c1C#CC(C)c1cc(OC)cc(-c2ccc3c(c2)OCCO3)c1 (configuration not stated)
 | 15 | 89 nM | 60 nM | 22 | Active | Active |  |  | CCc1nc(N)nc(N)c1C#CC(C)c1cc(OC)cc(-c2ccncc2)c1 (configuration not stated)
250 nM | 11 | 22 nM | 23 nM | 11 |  | Active |  |  | CCc1nc(N)nc(N)c1C#CC(C)c1cc(OC)cc(N2CCOCC2)c1 (configuration not stated)
